Tests used:
[1] = biological target: T1, human P2Y13 (GPR86) (Homo sapiens, UniProt Q9BPV8, T179M); test: Antagonism of ADP-induced IP3 accumulation in human P2Y13-AG32 cells; type: cell-based; conditions: 10 min pre-incubation, then ADP 100 nM for 30 s; means±S.D. of three independent experiments
T1 construct: expressed in transfected cells; host or cells: 1321N1 astrocytoma clone AG32 (stably expressing Gα16 from pERAEQ2), G418-selected
T1 sequence (Q9BPV8 22-354 T179M): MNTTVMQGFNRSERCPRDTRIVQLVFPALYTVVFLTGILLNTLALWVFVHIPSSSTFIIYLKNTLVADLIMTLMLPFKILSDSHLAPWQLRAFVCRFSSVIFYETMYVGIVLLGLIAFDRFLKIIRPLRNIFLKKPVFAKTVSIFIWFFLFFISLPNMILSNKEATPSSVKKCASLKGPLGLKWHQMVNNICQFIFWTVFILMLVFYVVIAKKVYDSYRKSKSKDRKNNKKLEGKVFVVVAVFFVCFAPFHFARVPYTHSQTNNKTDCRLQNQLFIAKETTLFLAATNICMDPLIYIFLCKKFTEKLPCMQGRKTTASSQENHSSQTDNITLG
Procedure: Antagonist were tested on AG32 cells transfected with human GPR86. AG32 cells were seeded (200,000 cells per dish) on 35 mm (diameter) Petri dishes and labeled for 24 h with 5 μCi/ml [^3H]-myoinositol in inositol free DMEM containing 5% fetal calf serum, antibiotics, amphotericin, sodium pyruvate, and 400 μg/ml of G418. […] Prior to the stimulation, cells were pre-incubated for 10 min in presence of Reactive Blue 2 (RB-2), Suramine, PPADS or MRS-2179. The cells were then incubated in presence of ADP 100 nM for 30 s. The incubation was stopped by the addition of 1 ml of an ice-cold 3% perchloric acid solution. […] The data represent the mean±S.D. of triplicate experimental points obtained in one representative experiment of three.

[2] = test system: 1321N1 cells expressing GPR86 receptor alone; conditions: nucleotides 100 μM for 30 s

IC50 [1]	Compound	IP3 response [2]
> 100000 nM	CNc1ncnc2c1ncn2[C@H]1C[C@H](OP(=O)(O)O)[C@@H](COP(=O)(O)O)O1 [MRS-2179]	
11700 ± 900 nM	Cc1nc(N=Nc2ccc(S(=O)(=O)O)cc2S(=O)(=O)O)c(COP(=O)(O)O)c(C=O)c1O [PPADS]	
2300 ± 400 nM	Cc1ccc(C(=O)Nc2ccc(S(=O)(=O)O)c3cc(S(=O)(=O)O)cc(S(=O)(=O)O)c23)cc1NC(=O)c1cccc(NC(=O)Nc2cccc(C(=O)Nc3cc(C(=O)Nc4ccc(S(=O)(=O)O)c5cc(S(=O)(=O)O)cc(S(=O)(=O)O)c45)ccc3C)c2)c1 [Suramine]	
	NCCc1c[nH]cn1 [histamine]	strong IP3 response

Compound	IC50 [1]	IP3 response [2]
Reactive Blue 2	1900 ± 100 nM	

From patent publication US7422846B2, “Natural ligand for orphan G protein coupled receptor GPR86 and methods of use” (Euroscreen S.A, priority 2001, dated 2008)
